The target of test [1] is T1, RgCBM40 I95A (Mediterraneibacter gnavus (Ruminococcus gnavus), UniProt A7B557, I95A).
T1 sequence (A7B557 50-237 I95A): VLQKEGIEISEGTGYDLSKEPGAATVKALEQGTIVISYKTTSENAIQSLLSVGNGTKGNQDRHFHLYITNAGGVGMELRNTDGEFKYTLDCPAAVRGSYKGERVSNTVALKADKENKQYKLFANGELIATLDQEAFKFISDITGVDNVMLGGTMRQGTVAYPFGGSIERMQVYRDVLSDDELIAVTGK
Nature of the test: ITC of sialoglycans binding to RgCBM40 mutant I95A. Details: species or system Ruminococcus gnavus ATCC 29149. Conditions: 173 µM protein, syringe 10 mM sugar (25 mM for Neu5Ac), * = estimate only. The method, then:
(§1) Site directed mutagenesis of RgGH33 to introduce the D282A mutation in the active site was carried out using the QuikChange kit, following the manufacturer’s instructions, Agilent (Santa Clara, CA, USA). Site-directed mutants of RgCBM40; I95A, Y116A, E126A, R128A, R204A and double mutant R128A/R204A, were obtained from NZyTech (Lisbon, Portugal). The primers are listed in Supplementary Table 4. The integrity of the RgGH33 and RgCBM40 mutants was checked by circular dichroism (CD).
(§2) Isothermal titration calorimetry (ITC) experiments were performed using the PEAQ-ITC system (Malvern, Malvern, UK) with a cell volume of 200 µl. Prior to titration protein samples were exhaustively dialysed into PBS. The ligand was dissolved in the dialysis buffer. The cell protein concentration was 115 µM (except for mutant I95A where it was 173 µM and the wild-type interaction with 6′SL where it was 230 µM) and the syringe ligand concentration was 10 mM (25 mM for Neu5Ac). Controls with titrant (sugar) injected into buffer only were subtracted from the data. Analysis was performed using Malvern software, using a single-binding site model. The stoichiometry of binding sites was set to 1.0 as this was evident from the crystal structure. Quantitative and most qualitative experiments were carried out in triplicate.

The target in test [2] is T2, RgCBM40 R204A (Mediterraneibacter gnavus (Ruminococcus gnavus), UniProt A7B557, R204A).
T2 sequence (A7B557 50-237 R204A): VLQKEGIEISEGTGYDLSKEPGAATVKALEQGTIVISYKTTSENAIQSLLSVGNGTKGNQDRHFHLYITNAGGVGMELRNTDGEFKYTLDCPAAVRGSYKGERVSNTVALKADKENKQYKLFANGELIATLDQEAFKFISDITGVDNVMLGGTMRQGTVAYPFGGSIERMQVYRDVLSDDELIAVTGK
In words: ITC of sialoglycans binding to RgCBM40 mutant R204A. Details: species or system Ruminococcus gnavus ATCC 29149. The method, then:
as §1, §2

Test [3] has as its target T3, RgCBM40 R128A/R204A (Mediterraneibacter gnavus (Ruminococcus gnavus), UniProt A7B557, R128A/R204A).
T3 sequence (A7B557 50-237 R128A/R204A): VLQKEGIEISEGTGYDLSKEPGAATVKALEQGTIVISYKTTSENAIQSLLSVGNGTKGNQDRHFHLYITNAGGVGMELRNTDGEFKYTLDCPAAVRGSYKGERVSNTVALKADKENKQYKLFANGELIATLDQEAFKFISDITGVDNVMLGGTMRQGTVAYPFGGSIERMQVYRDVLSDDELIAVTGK
Nature of the test: ITC of sialoglycans binding to RgCBM40 double mutant R128A/R204A. Also noted: species or system Ruminococcus gnavus ATCC 29149. The method, then: as §1, §2

Test [4] concerns RgCBM40 binding to LS174T MUC2. In words: ELISA of RgCBM40 binding to LS174T MUC2 in competition with sugars. Also noted: species or system Ruminococcus gnavus ATCC 29149. The note with it: RgCBM40 preincubated with 1 mM free sugar overnight at 4 °C; immobilised LS174T MUC2; A450. The method, then: RgCBM40 binding to purified mucins was tested by ELISA. Mucins (100 μl of 10 μg ml^−1) were immobilised onto a high binding 96 well plate (Greiner, Stonehouse, UK) overnight at 4 °C. All subsequent steps were carried out for 1 h at room temperature. The plates were blocked with 3% (w/v) BSA, incubated with RgCBM40 (500 μg ml^−1), followed by an incubation with 1:5000 anti-RgNanH (raised in rabbit, Biogenes) then with 1:5000 anti-rabbit secondary antibody (raised in donkey) conjugated to peroxidase (GE Healthcare). Between each step, the plate was washed with 3 × 300 μl of PBS containing 0.05% (v/v) Tween 20 (PBST). Prior to detection, an additional wash step and 30 s incubation with PBST was carried out. Binding was detected using tetramethylbenzidine (TMB) visualisation solution (Biolegend, San Diego, CA, USA) which was incubated for 15 min. The reaction was stopped by addition of 2 M H2SO4 and absorbance measured at 450 nm using a plate-reader (Bench Marl Plus, Biorad), subtracting background readings at 570 nm. Negative controls including no RgCBM40 (subtracted from A450 value), no primary or no secondary antibody were carried out in parallel. For comparison between plates, values were normalised to the reading for LS174T MUC2 which was arbitrarily set at 100%. For enzymatic treatment of the mucin, LS174T MUC2 (2 mg ml^−1) was incubated with sialidases (2 µg ml^−1) overnight at 4 °C on a rotary wheel prior to immobilisation on the plate. For chemical treatment of mucin, LS174T MUC2 was incubated with 0.1 M trifluoroacetic acid (TFA) at 80 °C for 1 h, dialysed against ammonium bicarbonate (50 mM), lyophilised and redissolved in H2O. For the competition assays, RgCBM40 was incubated with 1 mM of free sugar overnight at 4 °C on a rotary wheel prior to addition to the ELISA plate as above. Experiments were carried out in triplicate.
On the technique in general: In an ELISA, binding on a coated surface is turned into a signal by an enzyme label.

Test [5] concerns the target T4, RgCBM40 R128A (Mediterraneibacter gnavus (Ruminococcus gnavus), UniProt A7B557, R128A).
T4 sequence (A7B557 50-237 R128A): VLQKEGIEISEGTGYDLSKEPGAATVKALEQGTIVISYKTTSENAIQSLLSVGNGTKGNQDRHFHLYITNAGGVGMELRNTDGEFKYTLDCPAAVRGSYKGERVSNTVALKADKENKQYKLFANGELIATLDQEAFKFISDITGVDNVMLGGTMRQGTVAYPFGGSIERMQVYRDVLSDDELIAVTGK
Nature of the test: ITC of sialoglycans binding to RgCBM40 mutant R128A. Also noted: species or system Ruminococcus gnavus ATCC 29149. The method, then: as §1, §2

For test [6], the target named is T5, RgCBM40 (Mediterraneibacter gnavus (Ruminococcus gnavus), UniProt A7B557). Nature of the test: STD NMR of sialoglycans with RgCBM40 WT. Also noted: species or system Ruminococcus gnavus ATCC 29149. The note with it: 1 mM sialoglycan, 50 μM RgCBM40 WT, 288 K; 'exception' = monosaccharides for which binding was not detected. The method, then: ^1H and ^13C resonance assignment for all the sugars was performed on the bases of 1D ^1H, 2D DQF-COSY, TOCSY, HSQC and NOESY experiments run on the free ligands in unbuffered D2O, pH 7.0. For STD NMR experiments, all the samples consisted of 1 mM sialoglycans and 50 μM RgCBM40 (WT or I95A mutant) in D2O buffer solution of 10 mM Tris-d11 pH 7.8 and 100 mM NaCl (ligand: protein ratio 20:1). An STD pulse sequence that included 2.5 ms and 5 ms trim pulses and a 3 ms spoil gradient was used. Saturation was achieved applying a train of 50 ms Gaussian pulses (0.40 mW) on the f2 channel, at 0.60 p.p.m. (on-resonance experiments) and 40 p.p.m. (off-resonance experiments). The broad protein signals were removed using a 40 ms spinlock (T1ρ) filter. All the experiments were recorded at ^1H frequency of 800.23 MHz on a Bruker Avance III spectrometer equipped with a 5 mm probe TXI 800 MHz H-C/N-D-05 Z BTO, at 288 K. For all the sialoglycans in the presence of RgCBM40, an STD experiment with a saturation time of 2 s and a relaxation delay of 5 s was performed, as a first test for binding. For the confirmed binders, the STD NMR experiments were carried out at different saturation times (0.5, 1, 2, 3, 4 and 5 s) with 1 K scans and relaxation delay of 5 s, in order to obtain the binding epitope mapping. The resulting build-up curves for each proton were fitted mathematically to a mono-exponential equation (y = a×[1-exp(b×x)]), from which the initial slopes (a×b) were obtained. For each ligand, the binding epitope mapping was obtained by dividing the initial slopes by the one of the H7 proton of the corresponding sialic acid ring, to which an arbitrary value of 100% was assigned. This normalisation of the STD values allows the comparison across all the sialoglycans.

Test [7] addresses T5, RgCBM40. In words: ITC of sialoglycans binding to RgCBM40 wild type. The note with it: RgCBM40 WT. Also noted: species or system Ruminococcus gnavus ATCC 29149. The method, then: as §2
Test [8] concerns the target T6, RgCBM40 Y116A (Mediterraneibacter gnavus (Ruminococcus gnavus), UniProt A7B557, Y116A).
T6 sequence (A7B557 50-237 Y116A): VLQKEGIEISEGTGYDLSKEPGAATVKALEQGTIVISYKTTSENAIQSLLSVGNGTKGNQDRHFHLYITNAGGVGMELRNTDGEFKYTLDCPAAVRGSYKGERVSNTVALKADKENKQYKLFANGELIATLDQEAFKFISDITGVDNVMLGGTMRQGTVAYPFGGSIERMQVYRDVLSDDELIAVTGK
Nature of the test: ITC of sialoglycans binding to RgCBM40 mutant Y116A. Details: species or system Ruminococcus gnavus ATCC 29149. The method, then: as §1, §2

Test [9] concerns the target T7, RgCBM40 Y210A (Mediterraneibacter gnavus (Ruminococcus gnavus), UniProt A7B557, Y210A).
T7 sequence (A7B557 50-237 Y210A): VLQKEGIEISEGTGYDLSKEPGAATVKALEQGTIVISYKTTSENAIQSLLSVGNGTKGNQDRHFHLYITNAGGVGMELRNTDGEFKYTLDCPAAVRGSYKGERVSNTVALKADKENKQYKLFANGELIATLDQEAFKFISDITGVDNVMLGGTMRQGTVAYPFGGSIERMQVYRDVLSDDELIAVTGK
Nature of the test: ITC of sialoglycans binding to RgCBM40 mutant Y210A. Details: species or system Ruminococcus gnavus ATCC 29149. The method, then: as §2

Test [10] addresses T8, RgCBM40 E126A (Mediterraneibacter gnavus (Ruminococcus gnavus), UniProt A7B557, E126A).
T8 sequence (A7B557 50-237 E126A): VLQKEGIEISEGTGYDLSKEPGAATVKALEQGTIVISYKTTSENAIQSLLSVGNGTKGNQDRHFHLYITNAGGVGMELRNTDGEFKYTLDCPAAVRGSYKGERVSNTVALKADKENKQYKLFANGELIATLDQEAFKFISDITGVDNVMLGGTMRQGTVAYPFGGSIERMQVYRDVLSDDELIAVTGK
In words: ITC of sialoglycans binding to RgCBM40 mutant E126A. Also noted: species or system Ruminococcus gnavus ATCC 29149. The method, then:
as §1, §2

For test [11], the target named is T9, LS174T MUC2 treated with trifluoroacetic acid or a sialidase to remove sialic acid (human (endogenous in LS174T), UniProt Q02817 21-5289, O-glycans with sialic acid removed by TFA or by a sialidase from C. perfringens, S. typhimurium, A. muciniphila or R. gnavus; reduced with dithiothreitol and alkylated with iodoacetamide).
T9 construct: MUC2, gel-forming mucin secreted by the human LS174T cell line; also called MUC2 treated chemically (TFA) or enzymatically with a sialidase (Cp, St, Am/Ak, Rg)
Nature of the test: ELISA; mucins (100 µl of 10 µg ml^-1) immobilised on a 96 well plate, RgCBM40 at 500 µg ml^-1 for 1 h at room temperature, detected with rabbit anti-RgNanH and a peroxidase-conjugated secondary antibody, A450; values normalised to LS174T MUC2 = 100%. Conditions: both partners purified.

Where “and” joins values, the source holds several entries; their conditions need not be identical. Equal entries are not always repeated. Entries after “also recorded” stand apart in the source; their conditions may differ.

Usually Kd stands for the equilibrium constant for the complex coming apart. Consider `CC(=O)N[C@H]1[C@H]([C@H](O)[C@H](O)CO)OC(O)(C(=O)O)C[C@@H]1O` (stereo partly drawn) [Neu5Ac, N-acetylneuraminic acid], for which the Kd in test [1] was ~23 mM; in [2] (ITC), > 25 mM; in test [3] (ITC) it was > 25 mM; in test [5] (ITC), > 25 mM; in test [7] (Kd, ITC in PBS, 115-230 μM protein in cell, syringe 10 mM sugar (25 mM for Neu5Ac), * = estimate only, Kd too high to determine) it was ~21 mM and ~20 mM; in [8] (ITC), > 25 mM. Further, the Kd in test [9] (ITC) and in test [10] (ITC) was > 25 mM in each case. Further, the “Binding by ITC (in words)” value in test [2], in test [3], in test [5], in test [8], in test [9] and in test [10] was “abolished” in each case. Further, the “Effect of free sugar on adherence of RgCBM40 to MUC2” value in test [4] is “no effect”. In addition, in test [6], the “Binding to RgCBM40 detected by STD NMR” value is “exception; also recorded: no interaction was observed”. In addition, the “Binding to RgCBM40 (in words)” value in [7] was “weak binding”.

B1: RgCBM40 (residues 50–237 of RgNanH), preparation for all other protein assays (ELISA) (domain or fragment, Ruminococcus gnavus ATCC 29149, UniProt A7B557 50-237, looked up)
chain: VLQKEGIEISEGTGYDLSKEPGAATVKALEQGTIVISYKTTSENAIQSLLSVGNGTKGNQDRHFHLYITNAGGVGMELRNTDGEFKYTLDCPAAVRGSYKGERVSNTVALKADKENKQYKLFANGELIATLDQEAFKFISDITGVDNVMLGGTMRQGTVAYPFGGSIERMQVYRDVLSDDELIAVTGK
notes: in the ELISA it was detected with anti-RgNanH antiserum
As to B1, the binding result in test [11] was “binds”.

Source of the values: PMC5736709, “Unravelling the specificity and mechanism of sialic acid recognition by the gut symbiont Ruminococcus gnavus” (Nature Communications, 2017).
